# Marks after values point to notes of the source that are not given here.
# Key:
# [1] = system: Staphylococcus aureus (01A0400); assay: Murine systemic infection model, S. aureus; format: in vivo; settings: 96 h, oral, single agent, S. aureus 01A0400, survival day 4
# [2] = system: 21 penicillin-resistant strains of S. pneumoniae; assay: microbe, parasite or virus in culture; format: cell-based; settings: Streptococcus pneumoniae; some S. pneumoniae clinical isolates; read-out: MICs of strains with high-level resistance
# [3] = system: Streptococcus pneumoniae (02J1016); assay: Mouse pneumonia model, S. pneumoniae 02J1016; format: in vivo; settings: 240 h, oral, single agent, survival day 10
# [4] = system: Haemophilus influenzae (54A1218); assay: Gerbil otitis media model, H. influenzae; format: in vivo
# [5] = system: Eschericia coli (51A0257); assay: Murine systemic infection model, E. coli; format: in vivo; settings: Escherichia coli, 96 h, oral, single agent, E. coli 51A0257, survival day 4
# [6] = system: Moraxella catarrhalis (87A1115); assay: Murine systemic infection model, M. catarrhalis; format: in vivo; settings: 96 h, oral, single agent, M. catarrhalis 87A1115, survival day 4
# [7] = system: Klebsiella pneumonaie (53A0031); assay: Murine systemic infection model, K. pneumoniae; format: in vivo; settings: 96 h, oral, single agent, K. pneumoniae 53A0031, survival day 4
# [8] = system: Streptococcus pneumoniae (02J1095); assay: Mouse pneumonia model, S. pneumoniae 02J1095; format: in vivo; settings: 240 h, oral, single agent, survival day 10
# [9] = system: Haemophilus influenzae (54A1218); assay: Murine systemic infection model, H. influenzae; format: in vivo; settings: 96 h, oral, single agent, H. influenzae 54A1218, survival day 4
# [10] = Chemical (pH) stability in solution; format: physicochemical
# Description: Buffers were appropriately formulated to achieve the desired pH of each incubation. […] The temperature of the incubation was regulated with a 96-well heat block. Incubations were performed at 25° C. and 37° C. […] An apparent first-order half-life could then be estimated as ln 2/kd.
# [11] = molecular target: T1, BRO-2 β-lactamase (M. catarrhalis 87A1178 ATCC43617) (Moraxella catarrhalis, UniProt Q59514); assay: β-lactamase inhibition in cell extracts, BRO-2; format: biochemical
# T1 sequence (Q59514 1-313 D293G): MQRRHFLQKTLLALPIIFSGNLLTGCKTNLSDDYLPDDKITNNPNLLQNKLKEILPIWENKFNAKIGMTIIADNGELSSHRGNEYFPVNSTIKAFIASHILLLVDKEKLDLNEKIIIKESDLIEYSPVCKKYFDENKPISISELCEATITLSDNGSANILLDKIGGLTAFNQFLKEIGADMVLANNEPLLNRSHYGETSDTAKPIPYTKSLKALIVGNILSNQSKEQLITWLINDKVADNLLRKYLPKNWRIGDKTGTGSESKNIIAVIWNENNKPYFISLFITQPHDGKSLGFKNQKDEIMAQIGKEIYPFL
# [12] = in vivo, cited from earlier work
# [13] = clavulanate in the Augmentin suspension; room temperature, 10 days; cited from earlier work
# BRO-1 and BRO-2 enzymes = BRO-1 and BRO-2 enzymes (Moraxella catarrhalis, UniProt Q59514); assay: β-lactamases from 30 recent clinical isolates of M. catarrhalis; format: biochemical; settings: BRO-1 and BRO-2 enzymes from 30 recent clinical isolates of M. catarrhalis
# BRO-1 and BRO-2 enzymes, sequence (Q59514 whole entry): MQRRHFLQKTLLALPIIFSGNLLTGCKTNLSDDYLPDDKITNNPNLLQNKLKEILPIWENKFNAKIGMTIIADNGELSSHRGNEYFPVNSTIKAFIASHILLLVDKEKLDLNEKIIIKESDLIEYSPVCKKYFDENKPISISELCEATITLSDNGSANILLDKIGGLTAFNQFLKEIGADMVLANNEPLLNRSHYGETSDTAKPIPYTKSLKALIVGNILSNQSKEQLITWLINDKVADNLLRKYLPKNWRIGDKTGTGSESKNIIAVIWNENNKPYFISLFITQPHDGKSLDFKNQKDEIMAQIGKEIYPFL
# [14] = Prodrug 3 suspension stability (0.5% methylcellulose); format: physicochemical; settings: for Potency (percent) in suspension: 1.51 mg/ml, un-buffered 0.5% methylcellulose, 25° C.
# in vitro = settings: plasma
# Description: The incubation consisted of 990 μl of plasma preincubated for 5 minutes at 37° C. in a 96-well heat block. The incubation was initiated with the addition of 10 μl of a 10 mM stock of compound in 100% methanol. Serial aliquots (100 μl) were removed and transferred to 200 μl of 75/25 acetonitrile/3% perchloric acid at 0, 1, 2, 5, 10, 20, 30, and 60 minutes. The samples were centrifuged, the supernatants transferred to injection vials, and 20 μl was injected onto the HPLC in-line with a LC/MS single quadropole mass spectrometer. The LC/MS system was run in the negative ion mode. […] The peak response at each time point was expressed as a percentage of that obtained at time=0. A degradation rate constant (kd) was obtained by regression of these percentages from time=0 minutes to […]. An apparent first-order half-life was then be estimated as ln 2/kd. These determinations were completed in duplicate and the average was reported as shown below.
# [15] = molecular target: E. coli TEM-1 beta-lactamase (Escherichia coli, UniProt P62593); assay: Beta-lactamase inhibitory activity at intestinal pH values; format: biochemical
# E. coli TEM-1 beta-lactamase, sequence (P62593 24-286 limits assumed): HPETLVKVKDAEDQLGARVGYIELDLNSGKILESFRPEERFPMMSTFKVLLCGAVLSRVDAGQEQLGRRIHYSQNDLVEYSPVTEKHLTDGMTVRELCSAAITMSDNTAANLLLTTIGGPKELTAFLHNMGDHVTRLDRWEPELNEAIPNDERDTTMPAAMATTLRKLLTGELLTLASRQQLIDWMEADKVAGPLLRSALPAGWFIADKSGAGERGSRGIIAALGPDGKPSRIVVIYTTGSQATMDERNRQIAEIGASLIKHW
# [16] = Portal vein studies in rats; format: in vivo; settings: portal vein cannulated rats; oral 100 mg/kg; 5, 15 and 30 minutes post dose; not detected, assay LLOQ
# Description: Portal Vein Studies in Rats: Systemic exposure of Prodrug 3 was also assessed in portal vein cannulated rats following oral administration of the prodrug at a dose of 100 mg/kg. Whole blood aliquots were stabilized in ice cold acid immediately upon sampling at 5, 15 and 30 minutes post dose. No levels of Prodrug 3 were detected in any of the samples (assay LLOQ of 100 ng/ml).
# [17] = Hepatic extraction, rat hepatocytes; format: in vitro ADME
# Excerpt: (§1) L. and A. Barve, 1998. Linear correlation of the fraction of oral dose absorbed of 64 drugs between humans and rats. Pharm. Res. 15:1792–1795.). Based upon this correlation, the rat was used to predict human absorption. […] Thus, oral bioavailability assessments in rats should correlate well with the fraction absorbed in humans.
# [18] = Hepatic extraction, human hepatocytes; format: in vitro ADME
# Excerpt: as §1
# [19] = buffer, pH 1.2, Half-life (Hours), solution stability
# [20] = buffer, pH 2.5, Half-life (Hours), solution stability
# [21] = buffer, pH 4, Half-life (Hours), solution stability
# [22] = buffer, pH 5, Half-life (Hours), solution stability
smiles,measurement,setting,value
"CC1(C)S[C@@H]2[C@H](NC(=O)[C@H](N)c3ccc(O)cc3)C(=O)N2[C@H]1C(=O)O [Amoxicillin, amoxicillin]",ED50,[1],> 100 mg/kg
same,MIC,[2],4 to 8 µg/mL
same,ED50,[3],3.3 mg/kg
same,outcome as a single agent,[4]; gerbil otitis media model,failed
same,ED50,[5],> 200 mg/kg
same,ED50,[6],> 100 mg/kg
same,ED50,[7],> 200 mg/kg
same,ED50,[8],25 mg/kg
same,ED50,[9],> 100 mg/kg
"O=C(O)[C@H]1/C(=C/CO)O[C@@H]2CC(=O)N21 [Clavulanate, lithium clavulanate]","Half-life (Hours), solution stability","[10]; buffer, 100 μM, pH 2.5",1.2 h
same,"Half-life (Hours), solution stability","[10]; buffer, 100 μM, pH 4",>24 h
same,"Half-life (Hours), solution stability","[10]; buffer, 100 μM, pH 5",>24 h
same,"Half-life (Hours), solution stability","[10]; buffer, 100 μM, pH 6.5",>24 h
same,"Half-life (Hours), solution stability","[10]; buffer, 100 μM, pH 7.4",>24 h
same,half-life at 100 μM,[10]; [19],0.6 h
same,half-life at 100 μM,[10]; [20],0.9 h
same,half-life at 100 μM,[10]; [21],> 24 h
same,half-life at 100 μM,[10]; [22],> 24 h
same,half-life at 100 μM,"[10]; buffer, pH 6.5, Half-life (Hours), solution stability",> 24 h
same,half-life at 100 μM,"[10]; buffer, pH 7.4, Half-life (Hours), solution stability",> 24 h
same,IC50,[11],110 nM
same,fraction that remains unabsorbed from the intestine,[12]; human,40%
same,fraction absorbed into circulation,[12],60%
same,potency retained in suspension,[13],40%
"CC1(C)[C@H](C(=O)[O-])N2C(=O)[C@@H](CO)[C@H]2S1(=O)=O.[Na+] [Na-HMPAS, 4-Thia-1-azabicyclo[3,2,0]heptane-2-carboxylic acid, 6-(hydroxymethyl)-3,3-dimethyl-7-oxo-, 4,4-dioxide, monosodium salt, (2S, 5R, 6R)]",IC50,BRO-1 and BRO-2 enzymes,190 nM
same,half-life at 100 μM,"[10]; pH buffer, pH 1.2, pH 1.2, 25° C., 100 μM, read-out: Half-life (Hours), solution stability",> 24 h
same,half-life at 100 μM,"[10]; pH buffer, pH 1.2, pH 1.2, 37° C., 100 μM, read-out: Half-life (Hours), solution stability",> 24 h
same,half-life at 100 μM,"[10]; pH buffer, pH 2.5, pH 2.5, 25° C., 100 μM, read-out: Half-life (Hours), solution stability",> 24 h
same,half-life at 100 μM,"[10]; pH buffer, pH 2.5, pH 2.5, 37° C., 100 μM, read-out: Half-life (Hours), solution stability",> 24 h
same,half-life at 100 μM,"[10]; pH buffer, pH 4, pH 4.0, 25° C., 100 μM, read-out: Half-life (Hours), solution stability",> 24 h
same,half-life at 100 μM,"[10]; pH buffer, pH 4, pH 4.0, 37° C., 100 μM, read-out: Half-life (Hours), solution stability",> 24 h
same,half-life at 100 μM,"[10]; pH buffer, pH 5, pH 5.0, 25° C., 100 μM, read-out: Half-life (Hours), solution stability",> 24 h
same,half-life at 100 μM,"[10]; pH buffer, pH 5, pH 5.0, 37° C., 100 μM, read-out: Half-life (Hours), solution stability",> 24 h
same,half-life at 100 μM,"[10]; pH buffer, pH 6.5, pH 6.5, 25° C., 100 μM, read-out: Half-life (Hours), solution stability",> 24 h
same,half-life at 100 μM,"[10]; pH buffer, pH 6.5, pH 6.5, 37° C., 100 μM, read-out: Half-life (Hours), solution stability",> 24 h
same,half-life at 100 μM,"[10]; pH buffer, pH 7.4, pH 7.4, 25° C., 100 μM, read-out: Half-life (Hours), solution stability",> 24 h
same,half-life at 100 μM,"[10]; pH buffer, pH 7.4, pH 7.4, 37° C., 100 μM, read-out: Half-life (Hours), solution stability",> 24 h
"C[C@H](OC(=O)c1ccccc1)OC(=O)[C@@H]1N2C(=O)[C@@H](CO)[C@H]2S(=O)(=O)C1(C)C [Prodrug 3, 4-Thia-1-azabicyclo[3.2.0]heptane-2-carboxylic acid, 6-(hydroxymethyl)-3,3-dimethyl-7-oxo-, (1R)-1-(benzoyloxy)ethyl ester, 4,4-dioxide (2S, 5R, 6R)]",Potency (percent) in suspension,[14]; Day 3,103%
same,Potency (percent) in suspension,[14]; Day 5,98%
same,Potency (percent) in suspension,[14]; Day 7,104%
same,Potency (percent) in suspension,"[14]; Day 10, pH ~6.8 initially, 4.7 by day 10",91*** percent
same,potency maintained in suspension,[14]; storage at room temperature for 10 days,greater than 90%
same,"Half-life (Hours), solution stability","[10]; buffer, 100 μM, pH 1.2",>24 h
same,"Half-life (Hours), solution stability","[10]; buffer, 100 μM, pH 2.5",>24 h
same,"Half-life (Hours), solution stability","[10]; buffer, 100 μM, pH 4",>24 h
same,"Half-life (Hours), solution stability","[10]; buffer, 100 μM, pH 5",>24 h
same,half-life at 100 μM,[10]; [19],> 24 h
same,half-life at 100 μM,[10]; [20],> 24 h
same,half-life at 100 μM,[10]; [21],> 24 h
same,half-life at 100 μM,[10]; [22],> 24 h
same,half-life at 100 μM,"[10]; buffer, pH 7, half-life of conversion of the prodrug to active inhibitor",0.55 h
same,half-life at 100 μM,[10]; solution half-life,0.5 h
same,ED50,[1],> 12.5 mg/kg
same,ED50,[3],> 25 mg/kg
same,ED50,"[4]; Haemophilus influenzae, 96 h, oral, single agent, gerbil otitis media, H. influenzae 54A1218, bacterial clearance day 4",> 25 mg/kg
same,half-life at 100 μM,in vitro; dog,2.8 min
same,half-life at 100 μM,in vitro; human,< 2 min
same,half-life at 100 μM,in vitro; monkey,3.6 min
same,half-life at 100 μM,in vitro; mouse,2.8 min
same,half-life at 100 μM,in vitro; rat,< 2 min
same,ED50,[5],> 100 mg/kg
same,IC50,[15]; pH 6.0,> 100000 nM
same,IC50,[15]; pH 7.0,2200 nM
same,ED50,[6],> 100 mg/kg
same,levels of Prodrug 3 in portal vein blood,[16],< 100 ng/mL
same,ED50,[7],> 25 mg/kg
same,ED50,[8],> 25 mg/kg
same,ED50,[9],> 25 mg/kg
"CC1(C)[C@H](C(=O)O)N2C(=O)[C@@H](CO)[C@H]2S1(=O)=O [Prodrug 6-β-HMPAS, 6-β-hydroxymethylpenicillanic acid sulfone]",IC50,[11],320 nM
same,hepatic extraction,[17],minimal hepatic extraction
same,hepatic extraction,[18],minimal hepatic extraction
